System: human maximum recommended daily dose, FDA database
Assay: DSSTox (FDAMDD) FDA Maximum (Recommended) Daily Dose Database
Settings: hits give low values
Procedure, shortened: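 MRDD values come from clinical trials with daily oral dosing, usually for 3–12 months, for the average adult, in mg/day converted to mg/kg-bw/day assuming 60 kg. Antineoplastic mg/m2 doses are divided by 37. Activity score maps log10(1/MRDD mmol) onto 1–100.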

[1] = TherapeuticCategory: anticonvulsant
[2] = TherapeuticCategory: antibacterial
[3] = TherapeuticCategory: antineoplastic
[4] = TherapeuticCategory: antiarrhythmic
[5] = TherapeuticCategory: antidepressant

C=CCN1C(=O)C(CC(C)C)NC1=S (stereo not drawn) was tested, and the maximum recommended daily dose (mmol/kg-bw/day) [1] was 0.188.

In the case of CCO[C@@H]1O[C@H](C(COCc2ccccc2)OCc2ccccc2)[C@H](OCc2ccccc2)[C@H]1O (stereo partly drawn), the maximum recommended daily dose (mmol/kg-bw/day) (TherapeuticCategory: sclerosing agent) is reported as 0.0278.

For CC(C)(N)Cc1ccccc1, the maximum recommended daily dose (mmol/kg-bw/day) (TherapeuticCategory: anorexic) was 0.00419.

NC12CC3CC(CC(C3)C1)C2 showed a maximum recommended daily dose (mmol/kg-bw/day) (TherapeuticCategory: antiviral, antiparkinsonian) of 0.0441.

For CC(C)(C)c1ccc(CN2CCN(C(c3ccccc3)c3ccc(Cl)cc3)CC2)cc1 (stereo not drawn), the maximum recommended daily dose (mmol/kg-bw/day) (TherapeuticCategory: antiemetic) was 0.00577.

CCC(C)C1(CC)C(=O)NC(=O)NC1=O (stereo not drawn) gave a maximum recommended daily dose (mmol/kg-bw/day) (TherapeuticCategory: sedative, hypnotic) of 0.00942.

For NC(=O)NC(=O)Cc1ccccc1, the maximum recommended daily dose (mmol/kg-bw/day) [1] was 0.281.

For CC[N+](C)(C)c1cccc(O)c1, the maximum recommended daily dose (mmol/kg-bw/day) (TherapeuticCategory: cholinergic) was 0.00347.

In the case of Cn1c(=O)c2c(ncn2CCO)n(C)c1=O, the maximum recommended daily dose (mmol/kg-bw/day) (TherapeuticCategory: bronchodilator) is reported as 0.0372.

CN1C(=O)CCS(=O)(=O)C1c1ccc(Cl)cc1 (stereo not drawn) was tested, and the maximum recommended daily dose (mmol/kg-bw/day) (TherapeuticCategory: anxiolytic, skeletal muscle relaxant) was 0.0244.

CCCC1C(=O)N2C(N(C)C)=Nc3ccc(C)cc3N2C1=O (stereo not drawn) was tested, and the maximum recommended daily dose (mmol/kg-bw/day) (TherapeuticCategory: analgesic, anti inflammatory) was 0.0892.

In the case of Cc1cc(C)nc(NS(=O)(=O)c2ccc(N)cc2)n1, the maximum recommended daily dose (mmol/kg-bw/day) [2] is reported as 0.18.

In the case of CCOC(=O)[C@H](CCc1ccccc1)N[C@@H](C)C(=O)N1Cc2ccccc2C[C@H]1C(=O)O, the maximum recommended daily dose (mmol/kg-bw/day) (TherapeuticCategory: antihypertensive, ACE inhibitor) is reported as 0.00303.

OC1(c2ccc(Cl)cc2)c2ccccc2C2=NCCN21 (stereo not drawn) gave a maximum recommended daily dose (mmol/kg-bw/day) (TherapeuticCategory: anorexic) of 0.000117.

With N[C@@H](Cc1c[nH]c2ccccc12)C(=O)O the maximum recommended daily dose (mmol/kg-bw/day) (TherapeuticCategory: antidepressant, nutrient) was 0.49.

Work on CC[C@]1(O)CC[C@H]2[C@@H]3CCC4=CC(=O)CC[C@@H]4[C@H]3CC[C@@]21C yielded a maximum recommended daily dose (mmol/kg-bw/day) (TherapeuticCategory: androgen) of 0.00165.

Molecule N[C@@H](C(=O)N[C@@H]1C(=O)N2C(C(=O)O)=C(Cl)CS[C@H]12)c1ccccc1 has a maximum recommended daily dose (mmol/kg-bw/day) [2] of 0.068.

For C=C[C@H]1CN2CC[C@H]1C[C@@H]2[C@@H](O)c1ccnc2ccc(OC)cc12, the maximum recommended daily dose (mmol/kg-bw/day) (TherapeuticCategory: anthiarrythmic) was 0.0308.

CC(C)(C)NCC(O)c1cc(O)cc(O)c1 (stereo not drawn) showed a maximum recommended daily dose (mmol/kg-bw/day) (TherapeuticCategory: bronchodilator, tocolytic) of 0.00111.

With OC[C@H]1O[C@@H](n2cnc3c2NC=NC[C@H]3O)C[C@@H]1O the maximum recommended daily dose (mmol/kg-bw/day) [3] was 0.000249.

O=C1OC(c2ccc(O)cc2)(c2ccc(O)cc2)c2ccccc21 gave a maximum recommended daily dose (mmol/kg-bw/day) (TherapeuticCategory: cathartic) of 0.00682.

For COc1ccc(C(=O)Nc2ccccc2CCC2CCCCN2C)cc1 (stereo not drawn), the maximum recommended daily dose (mmol/kg-bw/day) [4] was 0.00945.

For CCS(=O)(=O)CCn1c([N+](=O)[O-])cnc1C, the maximum recommended daily dose (mmol/kg-bw/day) (TherapeuticCategory: antiprotozoal, antiamebic) was 0.135.

For CN(C)CC/C=C1\c2ccccc2CSc2ccccc21, the maximum recommended daily dose (mmol/kg-bw/day) [5] was 0.00846.

Work on Cn1nnnc1SCC1=C(C(=O)O)N2C(=O)[C@@H](NC(=O)[C@H](OC=O)c3ccccc3)[C@H]2SC1 yielded a maximum recommended daily dose (mmol/kg-bw/day) [2] of 0.195.

COCCc1ccc(OCC(O)CNC(C)C)cc1 (stereo not drawn) was tested, and the maximum recommended daily dose (mmol/kg-bw/day) (TherapeuticCategory: antihypertensive, antianginal) was 0.0249.

O=NN(CCCl)C(=O)NCCCl showed a maximum recommended daily dose (mmol/kg-bw/day) [3] of 0.000389.

O=C1Nc2ccc(Cl)cc2C(c2ccccc2)=NC1O (stereo not drawn) showed a maximum recommended daily dose (mmol/kg-bw/day) (TherapeuticCategory: anxiolytic) of 0.00698.

In the case of CO[C@@H]1[C@@H](O[C@@H]2O[C@H](C)[C@@H](O[C@H]3C[C@@](C)(O)[C@@H](O)[C@H](C)O3)[C@H](N(C)C)[C@H]2O)[C@@H](CC=O)C[C@@H](C)[C@@H](O[C@@H]2CC[C@H](N(C)C)[C@@H](C)O2)/C=C/C=C/C[C@@H](C)OC(=O)C[C@H]1OC(C)=O, the maximum recommended daily dose (mmol/kg-bw/day) [2] is reported as 0.0754.

CCN(CC)S(=O)(=O)c1ccc(C(=O)O)cc1 was tested, and the maximum recommended daily dose (mmol/kg-bw/day) (TherapeuticCategory: uricosuric) was 0.194.

In the case of C[C@H]1CC2=CC(=O)CC[C@]2(C)[C@H]2CC[C@@]3(C)[C@@H](CC[C@]3(C)O)[C@H]12, the maximum recommended daily dose (mmol/kg-bw/day) [3] is reported as 0.0158.

With CC(=O)[C@@]1(O)CC[C@H]2[C@@H]3C=C(Cl)C4=CC(=O)[C@@H]5C[C@@H]5[C@]4(C)[C@H]3CC[C@@]21C the maximum recommended daily dose (mmol/kg-bw/day) (TherapeuticCategory: antiandrogen) was 0.0133.

CCc1nn(CCCN2CCN(c3cccc(Cl)c3)CC2)c(=O)n1CC was tested, and the maximum recommended daily dose (mmol/kg-bw/day) [5] was 0.00662.

Clc1ccc2c(c1)C(N1CCNCC1)=Nc1ccccc1O2 showed a maximum recommended daily dose (mmol/kg-bw/day) [5] of 0.0319.

C=CCN1CC[C@]23CCCC[C@H]2[C@H]1Cc1ccc(O)cc13 showed a maximum recommended daily dose (mmol/kg-bw/day) (TherapeuticCategory: narcotic antagonist) of 0.000235.

With Cc1ccc(S(=O)(=O)NC(=O)NC2CCCCC2)cc1N the maximum recommended daily dose (mmol/kg-bw/day) (TherapeuticCategory: antidiabetic) was 0.0107.

CC(C)Cc1ccc(C(C)C(=O)O)cc1 (stereo not drawn) showed a maximum recommended daily dose (mmol/kg-bw/day) (TherapeuticCategory: anti inflammatory) of 0.194.

CCN(CC)CCNC(=O)c1ccc(N)cc1 showed a maximum recommended daily dose (mmol/kg-bw/day) [4] of 0.212.

From PubChem BioAssay AID1195 (EPA DSSTox, 2008)
